“And” between values parts separate entries of the source, which are not always exact repeats. Equal entries are not always repeated. Toxic doses and inconclusive results are not listed. The calls were made as follows: active = survival T/C of 150% or more; inactive = T/C below 125% in these data.
Tested on: P388 leukemia ip, CD2F1 mice, survival T/C
Assay: NCI In Vivo Anticancer Drug Screen. Data for tumor model P388 Leukemia (intraperitoneal) in CD2F1 (CDF1) mice
Conditions: endpoint: median survival time, higher = longer survival
Method in brief: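 Mice carrying the transplanted tumor received test compound or vehicle. Survival was recorded in each group, and the value is the treated-group measurement divided by that of the vehicle-treated control group.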

[1] = dose: 25.0 mg/kg/injection, schedule: Q04DX002 (ip), vehicle: saline with Tween-80
[2] = dose: 50.0 mg/kg/injection, schedule: Q04DX002 (ip), vehicle: saline with Tween-80
[3] = dose: 50.0 mg/kg/injection, schedule: Q01DX009 (ip), vehicle: saline
[4] = dose: 100.0 mg/kg/injection, schedule: Q01DX009 (ip), vehicle: saline
[5] = dose: 200.0 mg/kg/injection, schedule: Q01DX009 (ip), vehicle: saline
[6] = dose: 12.5 mg/kg/injection, schedule: Q01DX009 (ip), vehicle: saline
[7] = dose: 25.0 mg/kg/injection, schedule: Q01DX009 (ip), vehicle: saline
[8] = dose: 60.0 mg/kg/injection, schedule: Q01DX005 (ip), vehicle: saline with Tween-80
[9] = dose: 120.0 mg/kg/injection, schedule: Q01DX005 (ip), vehicle: saline with Tween-80
[10] = dose: 12.5 mg/kg/injection, schedule: Q01DX009 (ip), vehicle: saline with Tween-80
[11] = dose: 25.0 mg/kg/injection, schedule: Q01DX009 (ip), vehicle: saline with Tween-80
[12] = dose: 50.0 mg/kg/injection, schedule: Q01DX009 (ip), vehicle: saline with Tween-80
[13] = dose: 50.0 mg/kg/injection, schedule: Q01DX005 (ip), vehicle: Klucel (hydroxypropylcellulose) (HPC)
[14] = dose: 100.0 mg/kg/injection, schedule: Q01DX005 (ip), vehicle: Klucel (hydroxypropylcellulose) (HPC)
[15] = dose: 200.0 mg/kg/injection, schedule: Q01DX005 (ip), vehicle: Klucel (hydroxypropylcellulose) (HPC)
[16] = dose: 50.0 mg/kg/injection, schedule: Q01DX005 (ip), vehicle: saline with Tween-80
[17] = dose: 100.0 mg/kg/injection, schedule: Q01DX005 (ip), vehicle: saline with Tween-80
[18] = dose: 100.0 mg/kg/injection, schedule: Q04DX003 (ip), vehicle: saline
[19] = dose: 200.0 mg/kg/injection, schedule: Q04DX003 (ip), vehicle: saline
[20] = dose: 400.0 mg/kg/injection, schedule: Q04DX003 (ip), vehicle: saline
[21] = dose: 240.0 mg/kg/injection, schedule: Q01DX005 (ip), vehicle: saline with Tween-80
[22] = dose: 200.0 mg/kg/injection, schedule: Q01DX005 (ip), vehicle: saline with Tween-80
[23] = dose: 100.0 mg/kg/injection, schedule: Q01DX009 (ip), vehicle: saline with Tween-80

Measured: T/C

Cc1ccc(-c2csc(=NCCc3ccccc3)n2-c2ccc(C)cc2)cc1
inactive: dose: 12.5 mg/kg/injection, schedule: Q04DX002 (ip), vehicle: saline with Tween-80 97 % of control | [1] 99 % of control | [2] 88 % of control | dose: 100.0 mg/kg/injection, schedule: Q04DX002 (ip), vehicle: saline with Tween-80 88 % of control | dose: 400.0 mg/kg/injection, schedule: Q04DX002 (ip), vehicle: saline with Tween-80 93 % of control

CC1=CN2C3=NCCN3C3=[N+](C)CCN3C2C=C1 (configuration not stated)
inactive: dose: 12.5 mg/kg/injection, schedule: Q01DX005 (ip), vehicle: saline 104 % of control | dose: 25.0 mg/kg/injection, schedule: Q01DX005 (ip), vehicle: saline 101 % of control | dose: 50.0 mg/kg/injection, schedule: Q01DX005 (ip), vehicle: saline 100 % of control and 112 % of control

CC1=CC2C(c3ccccc3)Nc3ccccc3N2C1=O (configuration not stated)
inactive: [3] 94 % of control | [4] 100 % of control | [5] 94 % of control

CC1(C)CC2(CC3(C1)S(=O)(=O)CCS3(=O)=O)S(=O)(=O)CCS2(=O)=O
inactive: dose: 6.25 mg/kg/injection, schedule: Q01DX009 (ip), vehicle: saline 103 % of control | [6] 100 % of control | [7] 116 % of control | [3] 100 % of control

Fc1ccc2nc3ccccc3c(SCCNCCSc3c4ccccc4nc4ccc(F)cc34)c2c1
inactive: [8] 97 % of control | [9] 89 % of control

CN(CCCN(C)CCC1CCCCC1)CCC1CCCCC1
inactive: [10] 100 % of control | [11] 103 % of control | [12] 105 % of control

COc1ccc2c(c1)OC(C)(C)C(c1ccccc1)C2c1ccc(OCCBr)c([N+](=O)[O-])c1 (configuration not stated)
inactive: [13] 101 % of control | [14] 105 % of control | [15] 97 % of control

CC(=O)C[n+]1ccc(C)cc1Sc1ccccc1C
inactive: dose: 25.0 mg/kg/injection, schedule: Q01DX005 (ip), vehicle: saline with Tween-80 101 % of control and 103 % of control | [16] 111 % of control and 113 % of control and 122 % of control | [17] 118 % of control and 120 % of control

CN(C)[C@@H]1C(=O)C(C(N)=O)=C(O)[C@@]2(O)C(=O)C3=C(O)c4c(O)ccc(Cl)c4[C@@](C)(O)[C@H]3C[C@@H]12.[Cl][Sb]([Cl])[Cl]
inactive: dose: 12.5 mg/kg/injection, schedule: Q01DX005 (ip), vehicle: saline with Tween-80 108 % of control | [16] 116 % of control and 120 % of control | [17] 104 % of control

Cc1cc2ncn(CC(=O)O)c2cc1C
inactive: dose: 50.0 mg/kg/injection, schedule: Q04DX003 (ip), vehicle: saline with Tween-80 100 % of control | dose: 100.0 mg/kg/injection, schedule: Q04DX003 (ip), vehicle: saline with Tween-80 90 % of control

CCN(CC)C(CC(=O)C(C)(C)C)=NCCCN1CCN(C)CC1
inactive: [3] 98 % of control | [4] 100 % of control

CC(/C=N\NC(N)=O)=N/N=C(N)N
inactive: [18] 94 % of control | [19] 94 % of control | [20] 92 % of control

CCO/C=C1\SC(=S)N(c2ccc(O)cc2)C1=O
inactive: [18] 113 % of control | [19] 113 % of control | [20] 109 % of control

CC(C)(N)COC(=O)c1ccccc1C(=O)O
inactive: dose: 100.0 mg/kg/injection, schedule: Q01DX001 (ip), vehicle: saline 90 % of control | dose: 200.0 mg/kg/injection, schedule: Q01DX001 (ip), vehicle: saline 95 % of control | dose: 400.0 mg/kg/injection, schedule: Q01DX001 (ip), vehicle: saline 104 % of control

CCOC(=O)C(CC(=O)O)=C1c2ccccc2-c2ccccc21
inactive: [8] 104 % of control | [9] 113 % of control | [21] 107 % of control

Nc1ccc(S(=O)(=O)n2c(=O)oc3ccc(Br)cc32)cc1
inactive: dose: 100.0 mg/kg/injection, schedule: Q04DX002 (ip), vehicle: Klucel (hydroxypropylcellulose) (HPC) 93 % of control | dose: 200.0 mg/kg/injection, schedule: Q04DX002 (ip), vehicle: Klucel (hydroxypropylcellulose) (HPC) 90 % of control | dose: 400.0 mg/kg/injection, schedule: Q04DX002 (ip), vehicle: Klucel (hydroxypropylcellulose) (HPC) 93 % of control

N#CC1CC2(CCC1=O)c1ccccc1-c1ccccc12 (configuration not stated)
inactive: [1] 92 % of control | [2] 98 % of control

NC(=O)CNC(=O)NC(Cc1ccccc1)C(=O)O (configuration not stated)
inactive: [16] 105 % of control | [17] 105 % of control | [22] 86 % of control

COC(=O)C1=C(C)NC(C)=C(C(=O)OCCCN2CCC(c3ccccc3)(c3ccccc3)CC2)C1c1cccc([N+](=O)[O-])c1 (configuration not stated)
inactive: dose: 15.0 mg/kg/injection, schedule: Q01DX005 (ip), vehicle: saline with Tween-80 100 % of control | dose: 30.0 mg/kg/injection, schedule: Q01DX005 (ip), vehicle: saline with Tween-80 103 % of control | [8] 99 % of control

O=C(O)c1nc2cn1/C=C\C=NCC1=CN3C=CC=NC3(C(=O)O)N1C2 (configuration not stated)
inactive: [11] 101 % of control | [12] 109 % of control | [23] 95 % of control

NNc1nncn2c1cc1ccccc12
inactive: dose: 6.25 mg/kg/injection, schedule: Q01DX009 (ip), vehicle: saline with Tween-80 98 % of control | [10] 95 % of control | [11] 92 % of control

CC1(C)Oc2c(C=O)c(O)cc3c2C2CC1CCC2(C)O3 (configuration not stated)
inactive: dose: 9.0 mg/kg/injection, schedule: Q01DX009 (ip), vehicle: saline with Tween-80 102 % of control | dose: 18.0 mg/kg/injection, schedule: Q01DX009 (ip), vehicle: saline with Tween-80 96 % of control | dose: 36.0 mg/kg/injection, schedule: Q01DX009 (ip), vehicle: saline with Tween-80 102 % of control

C[Si](C)(C)SCCS[Si](C)(C)C
inactive: [16] 98 % of control | [17] 98 % of control | [22] 95 % of control

Cc1ccc(Nc2nnc(Nc3ccc(C)cn3)c3ccccc23)nc1
inactive: [16] 90 % of control | [17] 89 % of control

O=[N+]([O-])c1c(NC2(CO)CCCC2)ncnc1NC1(CO)CCCC1
inactive: dose: 65.5 mg/kg/injection, schedule: Q04DX003 (ip), vehicle: Klucel (hydroxypropylcellulose) (HPC) 97 % of control | dose: 131.0 mg/kg/injection, schedule: Q04DX003 (ip), vehicle: Klucel (hydroxypropylcellulose) (HPC) 105 % of control | dose: 262.0 mg/kg/injection, schedule: Q04DX003 (ip), vehicle: Klucel (hydroxypropylcellulose) (HPC) 102 % of control

CC1(Cc2c(N)[nH]c(=S)[nH]c2=O)OCCO1
inactive: [16] 105 % of control | [17] 110 % of control | [22] 110 % of control

Cc1nc2nc(=S)[nH]c(N)c2nc1C
inactive: [6] 103 % of control | [7] 95 % of control | [3] 95 % of control | [4] 100 % of control

CC(C)C(C(F)C(=O)OCc1ccccc1)N(Cc1ccccc1)Cc1ccccc1 (configuration not stated)
inactive: [13] 98 % of control | [14] 91 % of control | [15] 89 % of control

COC1c2cc3ccccc3nc2-c2ccccc2C1(C)C (configuration not stated)
inactive: dose: 25.0 mg/kg/injection, schedule: Q01DX009 (ip), vehicle: other 99 % of control | dose: 50.0 mg/kg/injection, schedule: Q01DX009 (ip), vehicle: other 96 % of control | dose: 100.0 mg/kg/injection, schedule: Q01DX009 (ip), vehicle: other 93 % of control | dose: 200.0 mg/kg/injection, schedule: Q01DX009 (ip), vehicle: other 89 % of control | dose: 400.0 mg/kg/injection, schedule: Q01DX009 (ip), vehicle: other 89 % of control

CCOC(=O)c1cn(CC)c2cc(-n3cccc3)c(F)cc2c1=O
inactive: [8] 98 % of control | [9] 97 % of control | [21] 94 % of control

[CH3][Ge]([CH3])=[O]
inactive: [3] 102 % of control | [4] 91 % of control | [5] 100 % of control

CCOC(=O)CCC1(C(=O)OC)C(=O)CCCCCCC1C(=O)OC (configuration not stated)
inactive: [23] 95 % of control | dose: 200.0 mg/kg/injection, schedule: Q01DX009 (ip), vehicle: saline with Tween-80 100 % of control | dose: 400.0 mg/kg/injection, schedule: Q01DX009 (ip), vehicle: saline with Tween-80 100 % of control
